From US11214594B2, “Antimicrobial peptide having synergistic antibacterial effect with antibiotics on multidrug resistant bacteria, and use thereof” (priority 2016, dated 2022)
Converted amounts (≈) assume the structure as drawn. Like-named read-outs stand apart in the source and are kept apart here. Where a SMILES comes first, the peptide text is derived from it.

What was measured:
MDREC 1238 = type: cell-based, Escherichia coli
Method in brief: (§1)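 Broth microdilution in MH medium: bacterial strains diluted to 2×10^6 CFU were mixed with equal volumes of peptide serially diluted twofold in MH medium.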

P. aeruginosa = assay: microbe, parasite or virus in culture; type: cell-based, Pseudomonas aeruginosa
Method in brief: as §1

MDRPA 2003 = type: cell-based, Pseudomonas aeruginosa
Method in brief: as §1

MDRAB 12036 = type: cell-based, Acinetobacter baumannii
Method in brief: as §1

MDRST 8009 = type: cell-based, Salmonella typhimurium; settings: agent alone
Method in brief: as §1

S. epidermidis = assay: microbe, parasite or virus in culture; type: cell-based, Staphylococcus epidermidis
Method in brief: as §1

MDREC 1229 [1] = assay: MIC of antibiotic during combined treatment with antimicrobial peptide; type: cell-based, Escherichia coli
Method in brief: (§2)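 Strains in MH medium at 2×10^6 CFU/ml were mixed with peptide diluted stepwise (2:1) from its MIC, then antibiotic dilutions in MH medium were added to give the antibiotic MIC. The reversed set-up, peptide titrated against fixed antibiotic, gave the peptide MIC.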

A. baumannii [2] = assay: as above; type: cell-based, Acinetobacter baumannii; settings: for Antibiotic MIC, Erythromycin / Antibiotic MIC, Linezolid / Antibiotic MIC, Vancomycin: A. baumannii
Method in brief: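 Read-out is the MIC of each combined solution, obtained from MH-medium dilutions of antibiotic added well by well, with a reversed-condition run as well.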

MDRAB 12035 [3] = assay: as above; type: cell-based, Acinetobacter baumannii
Method in brief: as §2

E. coli = type: cell-based, Escherichia coli; settings: E. coli
Method in brief: as §2

MDREC 1229 [4] = type: cell-based, Escherichia coli
Method in brief: as §2

A. baumannii [5] = assay: MIC of antimicrobial peptide during combined treatment with antibiotic; type: cell-based, Acinetobacter baumannii
Method in brief: as §2

MDRAB 12035 [6] = assay: as above; type: cell-based, Acinetobacter baumannii
Method in brief: as §2

[7] = peptide treatment concentration 1 μg/ml
[8] = peptide treatment concentration 2 μg/ml
[9] = peptide treatment concentration 4 μg/ml
[10] = peptide treatment concentration 6 μg/ml
[11] = peptide treatment concentration 8 μg/ml
[12] = peptide treatment concentration 16 μg/ml
[13] = peptide treatment concentration 32 μg/ml
[14] = peptide treatment concentration 64 μg/ml
[15] = combined with peptide at 1 μg/ml
[16] = combined with peptide at 2 μg/ml
[17] = combined with peptide at 4 μg/ml
[18] = combined with peptide at 6 μg/ml
[19] = combined with peptide at 8 μg/ml
[20] = combined with peptide at 16 μg/ml
[21] = combined with peptide at 32 μg/ml
[22] = combined with peptide at 64 μg/ml
[23] = with Erythromycin […] (Conc./MIC 1)
[24] = erythromycin 4 μg/ml (Conc./MIC 1/8)
[25] = erythromycin 8 μg/ml (Conc./MIC 1/4)
[26] = erythromycin 16 μg/ml (Conc./MIC 1/2)
[27] = erythromycin 32 μg/ml (Conc./MIC 1)
[28] = vancomycin 512 μg/ml (Conc./MIC 1/2)
[29] = vancomycin 1024 μg/ml (Conc./MIC 1)

CC[C@H](C)[C@H](NC(=O)[C@H](CCCCN)NC(=O)[C@H](Cc1c[nH]c2ccccc12)NC(=O)[C@@H](N)CCCNC(=N)N)C(=O)N[C@@H](Cc1ccccc1)C(=O)N[C@@H](CCCCN)C(=O)N[C@@H](CCCCN)C(=O)N[C@H](C(=O)N1CCC[C@H]1C(=O)N[C@@H](CCCCN)C(=O)N[C@@H](CC(C)C)C(=O)N[C@@H](CC(C)C)C(=O)N[C@@H](Cc1c[nH]cn1)C(=O)N[C@@H](CO)C(=O)N[C@@H](CC(C)C)C(=O)N[C@@H](CCCCN)C(=O)N[C@@H](CCCCN)C(=O)N[C@@H](Cc1ccccc1)C(N)=O)[C@@H](C)CC [PapMA-8, RWK IFK KIP KLL HSL KKF-NH2] (H-RWKIFKKIPKLLHSLKKF-NH2; N-terminus assumed)
Minimal inhibitory concentration MIC (MDREC 1238): 64 µg/mL (≈ 27.7 µM)
Minimal inhibitory concentration MIC (P. aeruginosa): 16 µg/mL (≈ 6.93 µM)
Antibacterial activity (in words) (P. aeruginosa; P. aeruginosa and S. typhimurium): significantly increased
Minimal inhibitory concentration MIC (MDRPA 2003): 16 µg/mL (≈ 6.93 µM)
Minimal inhibitory concentration MIC (MDRAB 12036): 64 µg/mL (≈ 27.7 µM)
Minimal inhibitory concentration MIC (MDRST 8009): 64 µg/mL (≈ 27.7 µM)
Minimal inhibitory concentration MIC (S. epidermidis): >128 µg/mL
Antibiotic MIC, Erythromycin (MDREC 1229 [1]; [7]): >128 µg/mL
Antibiotic MIC, Linezolid (MDREC 1229 [1]; [7]): >128 µg/mL
Antibiotic MIC, Vancomycin (MDREC 1229 [1]; [7]): >128 µg/mL
Antibiotic MIC, Erythromycin (MDREC 1229 [1]; [8]): 64 µg/mL
Antibiotic MIC, Linezolid (MDREC 1229 [1]; [8]): >128 µg/mL
Antibiotic MIC, Vancomycin (MDREC 1229 [1]; [8]): >128 µg/mL
Antibiotic MIC, Erythromycin (MDREC 1229 [1]; [9]): 8 µg/mL
Antibiotic MIC, Linezolid (MDREC 1229 [1]; [9]): 128 µg/mL
Antibiotic MIC, Vancomycin (MDREC 1229 [1]; [9]): >128 µg/mL
Antibiotic MIC, Erythromycin (MDREC 1229 [1]; [10]): 4 µg/mL
Antibiotic MIC, Linezolid (MDREC 1229 [1]; [10]): 32 µg/mL
Antibiotic MIC, Vancomycin (MDREC 1229 [1]; [10]): >128 µg/mL
Antibiotic MIC, Erythromycin (MDREC 1229 [1]; [11]): 1 µg/mL
Antibiotic MIC, Linezolid (MDREC 1229 [1]; [11]): 32 µg/mL
Antibiotic MIC, Vancomycin (MDREC 1229 [1]; [11]): 32 µg/mL
Antibiotic MIC, Erythromycin (MDREC 1229 [1]; [12]): 0.5 µg/mL
Antibiotic MIC, Linezolid (MDREC 1229 [1]; [12]): 16 µg/mL
Antibiotic MIC, Vancomycin (MDREC 1229 [1]; [12]): 16 µg/mL
Antibiotic MIC, Erythromycin (MDREC 1229 [1]; [13]): 0.125 µg/mL
Antibiotic MIC, Linezolid (MDREC 1229 [1]; [13]): 8 µg/mL
Antibiotic MIC, Vancomycin (MDREC 1229 [1]; [13]): 8 µg/mL
Antibiotic MIC, Erythromycin (MDREC 1229 [1]; [14]): 0 µg/mL
Antibiotic MIC, Linezolid (MDREC 1229 [1]; [14]): 0 µg/mL
Antibiotic MIC, Vancomycin (MDREC 1229 [1]; [14]): 0 µg/mL
Synergistic effect of antibacterial activity with existing antibiotics compared with PapMA-1 (A. baumannii [2]; A. baumannii and MDRAB 12035): higher level than the PapMA-1 peptide
Antibiotic MIC, Erythromycin (A. baumannii [2]; [15]): 32 µg/mL
Antibiotic MIC, Linezolid (A. baumannii [2]; [15]): >128 µg/mL
Antibiotic MIC, Vancomycin (A. baumannii [2]; [15]): >128 µg/mL
Antibiotic MIC, Erythromycin (A. baumannii [2]; [16]): 8 µg/mL
Antibiotic MIC, Linezolid (A. baumannii [2]; [16]): 64 µg/mL
Antibiotic MIC, Vancomycin (A. baumannii [2]; [16]): >128 µg/mL
Antibiotic MIC, Erythromycin (A. baumannii [2]; [17]): 4 µg/mL
Antibiotic MIC, Linezolid (A. baumannii [2]; [17]): 32 µg/mL
Antibiotic MIC, Vancomycin (A. baumannii [2]; [17]): 32 µg/mL
Antibiotic MIC, Erythromycin (A. baumannii [2]; [18]): 4 µg/mL
Antibiotic MIC, Linezolid (A. baumannii [2]; [18]): 16 µg/mL
Antibiotic MIC, Vancomycin (A. baumannii [2]; [18]): 16 µg/mL
Antibiotic MIC, Erythromycin (A. baumannii [2]; [19]): 0.25 µg/mL
Antibiotic MIC, Linezolid (A. baumannii [2]; [19]): 4 µg/mL
Antibiotic MIC, Vancomycin (A. baumannii [2]; [19]): 8 µg/mL
Antibiotic MIC, Erythromycin (A. baumannii [2]; [20]): 0.125 µg/mL
Antibiotic MIC, Linezolid (A. baumannii [2]; [20]): 1 µg/mL
Antibiotic MIC, Vancomycin (A. baumannii [2]; [20]): 4 µg/mL
Antibiotic MIC, Erythromycin (A. baumannii [2]; [21]): 0 µg/mL
Antibiotic MIC, Linezolid (A. baumannii [2]; [21]): 0 µg/mL
Antibiotic MIC, Vancomycin (A. baumannii [2]; [21]): 0 µg/mL
Antibiotic MIC, Erythromycin (A. baumannii [2]; [22]): 0 µg/mL
Antibiotic MIC, Linezolid (A. baumannii [2]; [22]): 0 µg/mL
Antibiotic MIC, Vancomycin (A. baumannii [2]; [22]): 0 µg/mL
Erythromycin MIC during combined treatment with peptide (MDRAB 12035 [3]; [7]): 32 µg/mL
Linezolid MIC during combined treatment with peptide (MDRAB 12035 [3]; [7]): >128 µg/mL
Vancomycin MIC during combined treatment with peptide (MDRAB 12035 [3]; [7]): >128 µg/mL
Erythromycin MIC during combined treatment with peptide (MDRAB 12035 [3]; [8]): 32 µg/mL
Linezolid MIC during combined treatment with peptide (MDRAB 12035 [3]; [8]): >128 µg/mL
Vancomycin MIC during combined treatment with peptide (MDRAB 12035 [3]; [8]): >128 µg/mL
Erythromycin MIC during combined treatment with peptide (MDRAB 12035 [3]; [9]): 16 µg/mL
Linezolid MIC during combined treatment with peptide (MDRAB 12035 [3]; [9]): 64 µg/mL
Vancomycin MIC during combined treatment with peptide (MDRAB 12035 [3]; [9]): 64 µg/mL
Erythromycin MIC during combined treatment with peptide (MDRAB 12035 [3]; [10]): 8 µg/mL
Linezolid MIC during combined treatment with peptide (MDRAB 12035 [3]; [10]): 32 µg/mL
Vancomycin MIC during combined treatment with peptide (MDRAB 12035 [3]; [10]): 32 µg/mL
Erythromycin MIC during combined treatment with peptide (MDRAB 12035 [3]; [11]): 4 µg/mL
Linezolid MIC during combined treatment with peptide (MDRAB 12035 [3]; [11]): 16 µg/mL
Vancomycin MIC during combined treatment with peptide (MDRAB 12035 [3]; [11]): 8 µg/mL
Erythromycin MIC during combined treatment with peptide (MDRAB 12035 [3]; [12]): 2 µg/mL
Linezolid MIC during combined treatment with peptide (MDRAB 12035 [3]; [12]): 4 µg/mL
Vancomycin MIC during combined treatment with peptide (MDRAB 12035 [3]; [12]): 4 µg/mL
Erythromycin MIC during combined treatment with peptide (MDRAB 12035 [3]; [13]): 1 µg/mL
Linezolid MIC during combined treatment with peptide (MDRAB 12035 [3]; [13]): 2 µg/mL
Vancomycin MIC during combined treatment with peptide (MDRAB 12035 [3]; [13]): 2 µg/mL
Erythromycin MIC during combined treatment with peptide (MDRAB 12035 [3]; [14]): 0 µg/mL
Linezolid MIC during combined treatment with peptide (MDRAB 12035 [3]; [14]): 0 µg/mL
Vancomycin MIC during combined treatment with peptide (MDRAB 12035 [3]; [14]): 0 µg/mL
Peptide MIC (E. coli; [23]): 0 µg/mL
Peptide MIC (E. coli; with Linezolid […] (Conc./MIC 1)): 0 µg/mL
Peptide MIC (E. coli; with Vancomycin 1024 μg/ml (Conc./MIC 1)): 0 µg/mL
Peptide MIC (MDREC 1229 [4]; [23]): 0 µg/mL
Peptide MIC (MDREC 1229 [4]; with Linezolid 512 μg/ml (Conc./MIC 1)): 0 µg/mL
Peptide MIC during treatment with antibiotic (A. baumannii [5]; [24]): 4 µg/mL
Peptide MIC during treatment with antibiotic (A. baumannii [5]; [25]): 4 µg/mL
Peptide MIC during treatment with antibiotic (A. baumannii [5]; [26]): 2 µg/mL
Peptide MIC during treatment with antibiotic (A. baumannii [5]; [27]): 0 µg/mL
Peptide MIC during treatment with antibiotic (A. baumannii [5]; linezolid 32 μg/ml (Conc./MIC 1/8)): 4 µg/mL
Peptide MIC during treatment with antibiotic (A. baumannii [5]; linezolid 64 μg/ml (Conc./MIC 1/4)): 2 µg/mL
Peptide MIC during treatment with antibiotic (A. baumannii [5]; linezolid […] (Conc./MIC 1)): 0 µg/mL
Peptide MIC during treatment with antibiotic (A. baumannii [5]; linezolid […] (Conc./MIC 1/2)): 2 µg/mL
Peptide MIC during treatment with antibiotic (A. baumannii [5]; [28]): 1 µg/mL
Peptide MIC during treatment with antibiotic (A. baumannii [5]; [29]): 0 µg/mL
Peptide MIC during treatment with antibiotic (A. baumannii [5]; vancomycin […] (Conc./MIC 1/4)): 1 µg/mL
Peptide MIC during treatment with antibiotic (A. baumannii [5]; vancomycin […] (Conc./MIC 1/8)): 4 µg/mL
Peptide MIC during treatment with erythromycin (MDRAB 12035 [6]; [24]): 8 µg/mL
Peptide MIC during treatment with erythromycin (MDRAB 12035 [6]; [25]): 8 µg/mL
Peptide MIC during treatment with erythromycin (MDRAB 12035 [6]; [26]): 4 µg/mL
Peptide MIC during treatment with erythromycin (MDRAB 12035 [6]; [27]): 0 µg/mL
Peptide MIC during treatment with linezolid (MDRAB 12035 [6]; linezolid 64 μg/ml (Conc./MIC 1/8)): 4 µg/mL
Peptide MIC during treatment with linezolid (MDRAB 12035 [6]; linezolid 512 μg/ml (Conc./MIC 1)): 0 µg/mL
Peptide MIC during treatment with linezolid (MDRAB 12035 [6]; linezolid […] (Conc./MIC 1/2)): 1 µg/mL
Peptide MIC during treatment with linezolid (MDRAB 12035 [6]; linezolid […] (Conc./MIC 1/4)): 2 µg/mL
Peptide MIC during treatment with vancomycin (MDRAB 12035 [6]; [28]): 2 µg/mL
Peptide MIC during treatment with vancomycin (MDRAB 12035 [6]; [29]): 1 µg/mL
Peptide MIC during treatment with vancomycin (MDRAB 12035 [6]; vancomycin […] (Conc./MIC 1/4)): 2 µg/mL
Peptide MIC during treatment with vancomycin (MDRAB 12035 [6]; vancomycin […] (Conc./MIC 1/8)): 4 µg/mL
